According to patent US9023851B2 (Merck Patent GmbH, priority 2010, dated 2015):

Columns and labels:
Syk = molecular target: T1, Syk (Homo sapiens, UniProt P43405); test: Syk enzyme assay (flash plate / Caliper mobility shift); format: biochemical
T1 construct: purchased BPS Bioscience, CA, USA
How it was run: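 Flashplate format used 2.5 nM SYK, 400 nM biotinylated peptide and 10 µM ATP with 33P tracer, pH 7.5, 1 h at 30 °C, read by radioactivity. Caliper format ran 90 min at 25 °C in HEPES pH 7.5, reading percent peptide conversion by mobility shift. IC50s came from dose-response curves.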

Ramos cells = test: BCR crosslinking-induced BLNK phosphorylation (BLNK cell assay); format: cell-based; conditions: Homo sapiens
Experimental: 1. BCR Crosslinking-Induced BLNK Phosphorylation
Ramos cells incubated overnight in IMDM medium containing 5% FCS were resuspended in IMDM medium without serum (3.3×10^6 cells/ml). 90 μl of cell suspension (300′000 cells) were incubated with 10 μl of SYK inhibitors (in 3% DMSO) for 20 minutes at 37° C., in 96 well plates. After preincubation with inhibitors, cells were activated with 10 μg/ml of goat antihuman anti-IgM for 10 minutes at 37° C. After stimulation, cells were fixed by addition of 80 μl of 4% paraformaldehyde followed by a 10 minutes incubation at RT and […] in 0.1% Triton X-100 in PBS. BLNK phosphorylation was detected by flow cytometry after staining of the cells with anti-BLNK-pY84-PE antibodies from BD pharmingen, for 45 minutes at RT. […]

KDR = molecular target: T2, KDR (Homo sapiens, UniProt P35968); test: KDR enzymatic assay (Caliper LifeSciences technology); format: biochemical
T2 construct: purchased BPS Bioscience, CA, USA
T2 sequence (P35968 20-1356): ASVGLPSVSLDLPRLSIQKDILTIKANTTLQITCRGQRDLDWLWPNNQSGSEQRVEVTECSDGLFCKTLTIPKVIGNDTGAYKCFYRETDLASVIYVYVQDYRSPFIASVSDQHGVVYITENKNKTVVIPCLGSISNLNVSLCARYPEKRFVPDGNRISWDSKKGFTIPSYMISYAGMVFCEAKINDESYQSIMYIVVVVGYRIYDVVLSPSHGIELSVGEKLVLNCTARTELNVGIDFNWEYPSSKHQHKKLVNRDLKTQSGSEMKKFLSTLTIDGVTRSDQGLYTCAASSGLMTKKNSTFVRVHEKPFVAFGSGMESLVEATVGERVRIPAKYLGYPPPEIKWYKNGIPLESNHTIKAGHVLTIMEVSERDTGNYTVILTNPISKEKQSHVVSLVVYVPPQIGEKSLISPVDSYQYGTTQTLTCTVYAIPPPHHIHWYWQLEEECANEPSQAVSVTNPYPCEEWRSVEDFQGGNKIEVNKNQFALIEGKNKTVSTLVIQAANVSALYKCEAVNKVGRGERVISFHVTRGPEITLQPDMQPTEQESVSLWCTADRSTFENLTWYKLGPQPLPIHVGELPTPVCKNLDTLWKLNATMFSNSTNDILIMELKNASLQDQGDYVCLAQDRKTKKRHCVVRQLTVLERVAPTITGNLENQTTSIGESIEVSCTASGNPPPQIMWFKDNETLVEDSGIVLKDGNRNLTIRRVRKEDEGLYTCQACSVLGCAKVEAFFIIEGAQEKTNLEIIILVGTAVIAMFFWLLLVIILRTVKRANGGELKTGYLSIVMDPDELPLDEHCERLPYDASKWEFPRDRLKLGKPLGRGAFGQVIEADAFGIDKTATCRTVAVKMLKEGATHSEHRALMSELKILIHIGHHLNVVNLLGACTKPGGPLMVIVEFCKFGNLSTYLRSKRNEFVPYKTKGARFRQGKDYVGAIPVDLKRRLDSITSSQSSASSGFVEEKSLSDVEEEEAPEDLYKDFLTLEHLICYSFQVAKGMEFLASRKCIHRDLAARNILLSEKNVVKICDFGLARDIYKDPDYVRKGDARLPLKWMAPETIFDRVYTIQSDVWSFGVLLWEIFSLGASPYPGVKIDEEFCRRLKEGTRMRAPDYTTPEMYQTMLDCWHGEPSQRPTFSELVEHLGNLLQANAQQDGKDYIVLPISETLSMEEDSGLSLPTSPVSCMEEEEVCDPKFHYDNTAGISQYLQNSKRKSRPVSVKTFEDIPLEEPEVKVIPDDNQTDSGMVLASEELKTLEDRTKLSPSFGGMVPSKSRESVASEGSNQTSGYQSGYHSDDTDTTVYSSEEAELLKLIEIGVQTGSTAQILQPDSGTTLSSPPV
How it was run: (§1)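 Off-chip mobility-shift assay quantifying conversion of a fluorescent peptide substrate to phosphorylated product. Reactions in 100 mM HEPES pH 7.5, 1 mM DTT, 1 mM MgCl2, 0.015% Brij-35, 90 min at 25 C, stopped with EDTA. IC50 from sigmoidal fit of percent conversion versus inhibitor concentration.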

ZAP-70 = molecular target: T3, ZAP-70 (Homo sapiens, UniProt P43403); test: Zap70 enzymatic assay (Caliper LifeSciences technology); format: biochemical
T3 construct: purchased BPS Bioscience, CA, USA
T3 sequence (P43403 1-619): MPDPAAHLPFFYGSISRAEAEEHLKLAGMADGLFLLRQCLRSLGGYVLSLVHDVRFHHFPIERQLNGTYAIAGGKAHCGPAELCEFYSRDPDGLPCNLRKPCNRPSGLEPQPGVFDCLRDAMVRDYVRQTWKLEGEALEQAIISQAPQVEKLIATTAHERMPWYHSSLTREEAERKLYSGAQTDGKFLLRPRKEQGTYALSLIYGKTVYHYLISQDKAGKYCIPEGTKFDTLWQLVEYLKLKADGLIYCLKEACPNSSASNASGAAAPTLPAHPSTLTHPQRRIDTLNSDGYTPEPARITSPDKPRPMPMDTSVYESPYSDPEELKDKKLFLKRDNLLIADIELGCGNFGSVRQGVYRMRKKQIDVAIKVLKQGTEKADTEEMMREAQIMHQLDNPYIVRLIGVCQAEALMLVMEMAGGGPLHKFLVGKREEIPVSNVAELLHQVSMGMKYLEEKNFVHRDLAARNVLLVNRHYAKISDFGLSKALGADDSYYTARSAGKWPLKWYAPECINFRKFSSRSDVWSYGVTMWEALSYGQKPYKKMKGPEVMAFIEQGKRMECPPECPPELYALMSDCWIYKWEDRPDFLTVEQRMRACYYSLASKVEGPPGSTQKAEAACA
How it was run: as §1

Src = molecular target: T4, Src (Homo sapiens, UniProt P12931); test: cSrc enzymatic assay (Caliper LifeSciences technology); format: biochemical
T4 construct: purchased Carna Bioscience, Kobe, Japan
T4 sequence (P12931 whole entry): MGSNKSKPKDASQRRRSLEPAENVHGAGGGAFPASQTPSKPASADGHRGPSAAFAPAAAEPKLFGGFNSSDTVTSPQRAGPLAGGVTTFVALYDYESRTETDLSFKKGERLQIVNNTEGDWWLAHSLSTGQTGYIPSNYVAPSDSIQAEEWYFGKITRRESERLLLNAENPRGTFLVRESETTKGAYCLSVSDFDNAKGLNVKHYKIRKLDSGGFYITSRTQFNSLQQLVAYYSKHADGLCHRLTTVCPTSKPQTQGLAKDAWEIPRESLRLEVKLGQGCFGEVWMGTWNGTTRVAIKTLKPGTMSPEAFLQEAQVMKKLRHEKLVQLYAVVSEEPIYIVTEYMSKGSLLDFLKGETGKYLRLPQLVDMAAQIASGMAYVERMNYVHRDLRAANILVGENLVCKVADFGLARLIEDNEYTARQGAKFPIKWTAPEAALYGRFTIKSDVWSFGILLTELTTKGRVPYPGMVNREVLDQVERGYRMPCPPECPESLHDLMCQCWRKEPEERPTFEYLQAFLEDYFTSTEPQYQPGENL
Experimental: Enzymatic Assays Using the Caliper LifeSciences Technology
The assays described here are performed on the Caliper Life Sciences LC3000 system This technology provides data on enzyme activity via measurement of the relative amounts of phosphorylated or unphosphorylated fluorescently labelled substrate peptide at the end of an enzymatic reaction. These different states of peptide are resolved by applying a potential difference across the sample. The presence of the charged phosphate group on the product (as opposed to the substrate) causes a different peptide mobility between the two peptides. This is visualized by excitation of the fluorescent label on the substrate and product peptides and represented as peaks within the analysis software.
In order to measure inhibitor activity of kinase inhibitors on this technology, a TTP Mosquito liquid handling instrument is used to place 0.25 ul of the appropriate concentration of inhibitor in 100% DMSO (for a dose response curve calculation) into each well of a 384-well plate. To this reaction components are added to a final volume of 25 ul. The table below indicates the sequences and concentrations for the assays described in this report. Standard components are 1 mM DTT (Sigma, D0632), 1 mM MgCl2 (Sigma, M1028), 100 mM HEPES pH 7.5 (Calbiochem, 391338), 0.015% Brij-35 (Sigma, B4184).
The reaction is incubated for 90 min at 25 C, and then stopped by the addition of 70 ul of Stop buffer (100 mM HEPES pH 7.5, 0.015% Brij-35, 10 mM EDTA (Sigma, E7889)).
The plate is read on a Caliper LC 3000 in an Off-Chip mobility shift assay format, on a 12-sipper chip. Unphosphorylated substrate and phosphorylated product peptide resolve as separate peaks allowing direct measurement of percentage of conversion of substrate to product. The percent conversion can be plotted against concentration of inhibitor to produce a sigmoidal dose response curve, from which an IC50 can be calculated using GeneData Condoseo or a similar product. Cellular activity assays

## c1cnc2cc(-c3nccn4nc(Nc5ccc(N6CCOCC6)cc5)nc34)ccc2c1 [Example C265, (4-Morpholin-4-yl-phenyl)-(8-quinolin-7-yl-[1,2,4]triazolo[1,5-a]pyrazin-2-yl)-amine]
Syk
  IC50: < 0.3 µM
Ramos cells
  IC50: 3 to 50 µM
KDR
  IC50: < 0.3 µM
ZAP-70
  IC50: 0.3 to 3 µM
Src
  IC50: 0.3 to 3 µM

## Oc1cccc(-c2nccn3nc(Nc4ccc(N5CCOCC5)cc4)nc23)c1 [Example C269, 3-[2-(4-Morpholin-4-yl-phenylamino)-[1,2,4]triazolo[1,5-a]pyrazin-8-yl]-phenol]
Syk
  IC50: < 0.3 µM
KDR
  IC50: < 0.3 µM
ZAP-70
  IC50: 0.3 to 3 µM
Src
  IC50: 0.3 to 3 µM

## Cc1cc(C)cc(Nc2nc3c(NCCCN(C)C)nccn3n2)c1 [Example C35, N^8-(3-Dimethylamino-propyl)-N^2-(3,5-dimethyl-phenyl)-[1,2,4]triazolo[1,5-a]pyrazine-2,8-diamine]
Syk
  IC50: 3 to 50 µM
KDR
  IC50: 3 to 50 µM
ZAP-70
  IC50: 3 to 50 µM
Src
  IC50: 3 to 50 µM

## Cc1nc2cc(Nc3nc4c(-c5cnn(C)c5)nccn4n3)ccc2[nH]1 [Example D1, (2-Methyl-1H-benzoimidazol-5-yl)-[8-(1-methyl-1H-pyrazol-4-yl)-[1,2,4]triazolo[1,5-a]pyrazin-2-yl]-amine]
Syk
  IC50: < 0.3 µM
Ramos cells
  IC50: 3 to 50 µM
KDR
  IC50: 0.3 to 3 µM
Src
  IC50: 0.3 to 3 µM

## COc1cc(Nc2nc3c(-c4cccc(NS(C)(=O)=O)c4)nccn3n2)cc(OC)c1 [Example C272, N-{3-[2-(3,5-Dimethoxy-phenylamino)-[1,2,4]triazolo[1,5-a]pyrazin-8-yl]-phenyl}-methanesulfonamide]
Syk
  IC50: < 0.3 µM
Ramos cells
  IC50: 3 to 50 µM
KDR
  IC50: < 0.3 µM
ZAP-70
  IC50: 0.3 to 3 µM
Src
  IC50: 0.3 to 3 µM

## Cc1cccc(Nc2nc3c(NCCCN4CCN(C)CC4)nccn3n2)c1 [Example C48, N^8-[3-(4-Methyl-piperazin-1-yl)-propyl]-N^2-m-tolyl-[1,2,4]triazolo[1,5-a]pyrazine-2,8-diamine]
Syk
  IC50: 3 to 50 µM
KDR
  IC50: 3 to 50 µM
ZAP-70
  IC50: 0.3 to 3 µM
Src
  IC50: 3 to 50 µM

## CN1CCN(c2ccc(Nc3nc4c(-c5ccc6c(cnn6C)c5)nccn4n3)cc2)CC1 [Example D15, [8-(1-Methyl-1H-indazol-5-yl)-[1,2,4]triazolo[1,5-a]pyrazin-2-yl]-[4-(4-methyl-piperazin-1-yl)-phenyl]-amine]
Syk
  IC50: < 0.3 µM
Ramos cells
  IC50: 3 to 50 µM
KDR
  IC50: 0.3 to 3 µM
ZAP-70
  IC50: 3 to 50 µM
Src
  IC50: 0.3 to 3 µM

## COc1cc(Nc2nc3c(N4CCCC4c4ccccn4)nccn3n2)cc(OC)c1 (stereo not shown) [Example D21, (3,5-Dimethoxy-phenyl)-[8-(2-pyridin-2-yl-pyrrolidin-1-yl)-[1,2,4]triazolo[1,5-a]pyrazin-2-yl]-amine]
Syk
  IC50: 0.3 to 3 µM
KDR
  IC50: 3 to 50 µM
ZAP-70
  IC50: 3 to 50 µM
Src
  IC50: 3 to 50 µM

## FC(F)(F)c1cccc(Nc2nc3c(NCCCN4CCOCC4)nccn3n2)c1 [Example C42, N^8-(3-Morpholin-4-yl-propyl)-N^2-(3-trifluoromethyl-phenyl)-[1,2,4]triazolo[1,5-a]pyrazine-2,8-diamine]
Syk
  IC50: 3 to 50 µM
KDR
  IC50: 3 to 50 µM
ZAP-70
  IC50: 0.3 to 3 µM
Src
  IC50: 3 to 50 µM

## c1cc(-c2nccn3nc(Nc4ccc(N5CCOCC5)cc4)nc23)c2cc[nH]c2c1 [Example D10, [8-(1H-Indol-4-yl)-[1,2,4]triazolo[1,5-a]pyrazin-2-yl]-(4-morpholin-4-yl-phenyl)-amine]
Syk
  IC50: < 0.3 µM
Ramos cells
  IC50: 3 to 50 µM
KDR
  IC50: < 0.3 µM
ZAP-70
  IC50: 3 to 50 µM
Src
  IC50: < 0.3 µM

## COc1cc(Nc2nc3c(-c4cccc5[nH]ncc45)nccn3n2)cc(OC)c1 [Example C303, (3,5-Dimethoxy-phenyl)-[8-(1H-indazol-4-yl)-[1,2,4]triazolo[1,5-a]pyrazin-2-yl]-amine]
Syk
  IC50: < 0.3 µM
KDR
  IC50: 0.3 to 3 µM
ZAP-70
  IC50: < 0.3 µM
Src
  IC50: < 0.3 µM

## COCCCNc1nccn2nc(Nc3cccc(C)c3)nc12 [Example C32, N^8-(3-Methoxy-propyl)-N^2-m-tolyl-[1,2,4]triazolo[1,5-a]pyrazine-2,8-diamine]
Syk
  IC50: 3 to 50 µM
KDR
  IC50: 3 to 50 µM
ZAP-70
  IC50: 3 to 50 µM
Src
  IC50: 3 to 50 µM

## CN(C)c1ccc(-c2nccn3nc(Nc4ccc(N5CCOCC5)cc4)nc23)cn1 [Example D3, [8-(6-Dimethylamino-pyridin-3-yl)-[1,2,4]triazolo[1,5-a]pyrazin-2-yl]-(4-morpholin-4-yl-phenyl)-amine]
Syk
  IC50: < 0.3 µM
KDR
  IC50: < 0.3 µM
ZAP-70
  IC50: 3 to 50 µM
Src
  IC50: 0.3 to 3 µM

## Cn1ccnc1Sc1ccc(Nc2nc3c(-c4ccccc4)nccn3n2)cc1Cl [Example C23, [3-Chloro-4-(1-methyl-1H-imidazol-2-ylsulfanyl)-phenyl]-(8-phenyl-[1,2,4]triazolo[1,5-a]pyrazin-2-yl)-amine]
Syk
  IC50: 0.3 to 3 µM
KDR
  IC50: 0.3 to 3 µM
ZAP-70
  IC50: 3 to 50 µM
Src
  IC50: 3 to 50 µM

## NCc1cccc(-c2nccn3nc(Nc4ccc(N5CCOCC5)cc4)nc23)c1 [Example C253, [8-(3-Aminomethyl-phenyl)-[1,2,4]triazolo[1,5-a]pyrazin-2-yl]-(4-morpholin-4-yl-phenyl)-amine]
Syk
  IC50: < 0.3 µM
Ramos cells
  IC50: 3 to 50 µM
KDR
  IC50: < 0.3 µM
Src
  IC50: 0.3 to 3 µM

## Cc1cccc(Nc2nc3c(-c4ccc(N5CCOCC5)cc4)nccn3n2)c1 [Example C13, [8-(4-Morpholin-4-yl-phenyl)-[1,2,4]triazolo[1,5-a]pyrazin-2-yl]-m-tolyl-amine]
Syk
  IC50: 0.3 to 3 µM
KDR
  IC50: 0.3 to 3 µM
ZAP-70
  IC50: 3 to 50 µM
Src
  IC50: 3 to 50 µM

## COc1cc(Nc2nc3c(-c4ccccc4-c4ccccc4)nccn3n2)cc(OC)c1 [Example C284, (8-Biphenyl-2-yl-[1,2,4]triazolo[1,5-a]pyrazin-2-yl)-(3,5-dimethoxy-phenyl)-amine]
Syk
  IC50: < 0.3 µM
Ramos cells
  IC50: 3 to 50 µM

## Cc1cc(C)cc(Nc2nc3c(NCCN)nccn3n2)c1 [Example C34, N^8-(2-Amino-ethyl)-N^2-(3,5-dimethyl-phenyl)-[1,2,4]triazolo[1,5-a]pyrazine-2,8-diamine]
Syk
  IC50: 3 to 50 µM
KDR
  IC50: 3 to 50 µM
ZAP-70
  IC50: 3 to 50 µM
Src
  IC50: 3 to 50 µM

## Cc1cccc(Nc2nc3c(NCCCN4CCOCC4)nccn3n2)c1 [Example C47, N^8-(3-Morpholin-4-yl-propyl)-N^2-m-tolyl-[1,2,4]triazolo[1,5-a]pyrazine-2,8-diamine]
Syk
  IC50: 3 to 50 µM
KDR
  IC50: 3 to 50 µM
ZAP-70
  IC50: 3 to 50 µM
Src
  IC50: 3 to 50 µM

## Cn1ncc2cc(-c3nccn4nc(Nc5ccc(N6CCOCC6)cc5)nc34)ccc21 [Example D2, [8-(1-Methyl-1H-indazol-5-yl)-[1,2,4]triazolo[1,5-a]pyrazin-2-yl]-(4-morpholin-4-yl-phenyl)-amine]
Syk
  IC50: < 0.3 µM
KDR
  IC50: < 0.3 µM
ZAP-70
  IC50: 3 to 50 µM
Src
  IC50: 0.3 to 3 µM
